In the supplement of paper PMC11208160:

Assay: recombinant UMI read abundance after kanamycin selection (control-corrected) (log10(CPM+1)); higher = more efficient recombination; extreme values may be limits of the assay; sequences stand for … in AGTGCAGAGAAAATCGGCCAGTTTTCTCTGCCTGCAGTCCGCATGCCGTGGGACCCCTTGGGTTCTAACCTGTTGCCTAGATTTATGCAGCGGACTGCCTTTCTCCCAAAGTGATAAACCGG…AGGTTGGTTTCACT; site = the 11-nt donor
In short: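 The measure is log10(CPM+1) for recombinant UMIs. These were PCR-amplified across the donor–target junction and sequenced after Escherichia coli carrying a donor and donor-binding-loop pair library and a target plasmid with T7-inducible IS621 bridge recombinase was plated on IPTG (0.07 mM) plus kanamycin or unselected. CPM were averaged over two replicates and scaled by control-derived factors.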
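Note: IS621 bridge recombinase in Escherichia coli cells against a fixed T5 target plasmid.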

Sequence | recombinant UMI read abundance (log10)
AGCTCAGCATGGACCGGTTTTCCCGGTAATCCGTATTTGGG (site AGCTAAGCTCC) | 0.0351
AGCTCAGCATGGACCGGTTTTCCCGGTAATCCGTATTTGGG (site AGCTCAACTCC) | 0
AGCTCAGCATGGACCGGTTTTCCCGGTAATCCGTATTTGGG (site AGCTCACCTCC) | 0.00337
AGCTCAGCATGGACCGGTTTTCCCGGTAATCCGTATTTGGG (site AGCTCAGCTAC) | 0.00707
AGCTCAGCATGGACCGGTTTTCCCGGTAATCCGTATTTGGG (site AGCTCAGCTCA) | 0.0167
AGCTCAGCATGGACCGGTTTTCCCGGTAATCCGTATTTGGG (site AGCTCAGCTCC) | 0.0108
AGCTCAGCATGGACCGGTTTTCCCGGTAATCCGTATTTGGG (site AGCTCAGCTCG) | 0.0246
AGCTCAGCATGGACCGGTTTTCCCGGTAATCCGTATTTGGG (site AGCTCAGCTCT) | 0.337
AGCTCAGCATGGACCGGTTTTCCCGGTAATCCGTATTTGGG (site AGCTCAGCTGC) | 0
AGCTCAGCATGGACCGGTTTTCCCGGTAATCCGTATTTGGG (site AGCTCAGCTTC) | 0.0127
AGCTCAGCATGGACCGGTTTTCCCGGTAATCCGTATTTGGG (site AGCTCATCTCC) | 0.0384
AGCTCAGCATGGACCGGTTTTCCCGGTAATCCGTATTTGGG (site AGCTCCGCTCC) | 0.0147
AGCTCAGCATGGACCGGTTTTCCCGGTAATCCGTATTTGGG (site AGCTCGGCTCC) | 0.0329
AGCTCAGCATGGACCGGTTTTCCCGGTAATCCGTATTTGGG (site AGCTCTGCTCC) | 0.0255
AGCTCAGCATGGACCGGTTTTCCCGGTAATCCGTATTTGGG (site AGCTGAGCTCC) | 0
AGCTCAGCATGGACCGGTTTTCCCGGTAATCCGTATTTGGG (site AGCTTAGCTCC) | 0.0288
AGCTCAGCATGGACCGGTTTTCCCGGTAATCCGTATTTGGG (site AGGTCAGCTCC) | 0.00833
AGCTCAGCATGGACCGGTTTTCCCGGTAATCCGTATTTGGG (site AGTTCAGCTCC) | 0.0207
AGCTCAGCATGGACCGGTTTTCCCGGTAATCCGTATTTGGG (site ATCTCAGCTCC) | 0.019
AGCTCAGCATGGACCGGTTTTCCCGGTAATCCGTATTTGGG (site CGCTCAGCTCC) | 0.299
AGCTCAGCATGGACCGGTTTTCCCGGTAATCCGTATTTGGG (site GGCTCAGCTCC) | 0.0255
AGCTCAGCATGGACCGGTTTTCCCGGTAATCCGTATTTGGG (site TGCTCAGCTCC) | 0.366
AGCTCAGCATGGACCGGTTTTCCCGGTAATCCGTATTTGGT (site AGCTCAGCTAC) | 1.27
AGCTCAGCATGGACCGGTTTTCCCGGTAATCCGTATTTGGT (site AGCTCAGCTCC) | 0.0126
AGCTCAGCATGGACCGGTTTTCCCGGTAATCCGTATTTGGT (site AGCTCAGCTGC) | 0

Sequence | recombinant UMI read abundance (log10)
AGCTCAGCATGGACCGGTTTTCCCGGTAATCCGTATTTGGT (site AGCTCAGCTTC) | 0.0112
AGCTCCGCATGGACCGGTTTTCCCGGTAATCCGTATTTGGG (site AGCTCAGCTCC) | 0.00775
AGCTCCGCATGGACCGGTTTTCCCGGTAATCCGTATTTGGG (site AGCTCCGCTCC) | 0.211
AGCTCCGCATGGACCGGTTTTCCCGGTAATCCGTATTTGGG (site AGCTCGGCTCC) | 0.0125
AGCTCCGCATGGACCGGTTTTCCCGGTAATCCGTATTTGGG (site AGCTCTGCTCC) | 0.00972
AGCTGGGCATGGACCGGTTTTCCCGGTAATCCGTATTTGTA (site AGCTGGGCTTA) | 2.76
AGCTTAGCATGGACCGGTTTTCCCGGTAATCCGTATTTGCC (site AGCTTAGCTGG) | 0
AGCTTCCCATGGACCGGTTTTCCCGGTAATCCGTATTTGTG (site AGATTCCCTCA) | 0.114
AGCTTCCCATGGACCGGTTTTCCCGGTAATCCGTATTTGTG (site AGCTTCCCTCA) | 0.00566
AGCTTCCCATGGACCGGTTTTCCCGGTAATCCGTATTTGTG (site AGGTTCCCTCA) | 0.00784
AGCTTCCCATGGACCGGTTTTCCCGGTAATCCGTATTTGTG (site AGTTTCCCTCA) | 0.0209
AGCTTTCCATGGACCGGTTTTCCCGGTAATCCGTATTTGGA (site AGCTTTCCTTC) | 0.00277
AGGAAAACATGGACCGGTTTTCCCGGTAATCCGTATTTGCA (site AGGAAAACTTG) | 0.959
AGGAAAACATGGACCGGTTTTCCCGGTAATCCGTATTTGCA (site AGGAACACTTG) | 0
AGGAAAACATGGACCGGTTTTCCCGGTAATCCGTATTTGCA (site AGGAAGACTTG) | 0
AGGAAAACATGGACCGGTTTTCCCGGTAATCCGTATTTGCA (site AGGAATACTTG) | 0
AGGAAAACATGGACCGGTTTTCCCGGTAATCCGTATTTGTA (site AGGAAAACTTA) | 1.92
AGGAAAACATGGACCGGTTTTCCCGGTAATCCGTATTTGTA (site AGGAAGACTTG) | 0
AGGAACACATGGACCGGTTTTCCCGGTAATCCGTATTTGCA (site AGGAAAACTTG) | 0
AGGAACACATGGACCGGTTTTCCCGGTAATCCGTATTTGCA (site AGGAACACTTG) | 2.52
AGGAACACATGGACCGGTTTTCCCGGTAATCCGTATTTGCA (site AGGAAGACTTG) | 0
AGGAACACATGGACCGGTTTTCCCGGTAATCCGTATTTGCA (site AGGAATACTTG) | 0.211
AGGAAGGCATGGACCGGTTTTCCCGGTAATCCGTATTTGCT (site AGAAAGGCTAG) | 2.69
AGGAAGGCATGGACCGGTTTTCCCGGTAATCCGTATTTGCT (site AGCAAGGCTAG) | 0.362
AGGAAGGCATGGACCGGTTTTCCCGGTAATCCGTATTTGCT (site AGGAAGACTTG) | 0.296

Sequence | recombinant UMI read abundance (log10)
AGGAAGGCATGGACCGGTTTTCCCGGTAATCCGTATTTGCT (site AGGAAGGCTAG) | 2.27
AGGAAGGCATGGACCGGTTTTCCCGGTAATCCGTATTTGCT (site AGTAAGGCTAG) | 1.3
AGGAAGGCATGGACCGGTTTTCCCGGTAATCCGTATTTGGA (site AGGAAGACTTG) | 0.224
AGGAAGGCATGGACCGGTTTTCCCGGTAATCCGTATTTGGA (site AGGAAGGCTTC) | 1.73
AGGAAGTCATGGACCGGTTTTCCCGGTAATCCGTATTTGCA (site AGGAAGACTTG) | 0.839
AGGAAGTCATGGACCGGTTTTCCCGGTAATCCGTATTTGCA (site AGGAAGCCTTG) | 0.641
AGGAAGTCATGGACCGGTTTTCCCGGTAATCCGTATTTGCA (site AGGAAGGCTTG) | 0
AGGAAGTCATGGACCGGTTTTCCCGGTAATCCGTATTTGCA (site AGGAAGTCTTG) | 3.29
AGGAAGTCATGGACCGGTTTTCCCGGTAATCCGTATTTGTC (site AGGAAGTCTGA) | 3.14
AGGAATTCATGGACCGGTTTTCCCGGTAATCCGTATTTGTT (site AGGAATTCTAA) | 2.16
AGGAATTCATGGACCGGTTTTCCCGGTAATCCGTATTTGTT (site CGGAATCCTAA) | 0
AGGACGACATGGACCGGTTTTCCCGGTAATCCGTATTTGCA (site AGGAAGACTTG) | 0.601
AGGACGACATGGACCGGTTTTCCCGGTAATCCGTATTTGCA (site AGGACGACTTG) | 2.51
AGGACGACATGGACCGGTTTTCCCGGTAATCCGTATTTGCA (site AGGAGGACTTG) | 1.38
AGGACGACATGGACCGGTTTTCCCGGTAATCCGTATTTGCA (site AGGATGACTTG) | 0.853
AGGACGACATGGACCGGTTTTCCCGGTAATCCGTATTTGGA (site AGGAAGACTTG) | 0
AGGACGACATGGACCGGTTTTCCCGGTAATCCGTATTTGGA (site AGGACGACTTC) | 0.813
AGGACTACATGGACCGGTTTTCCCGGTAATCCGTATTTGGC (site AGGACTACTGA) | 0
AGGACTACATGGACCGGTTTTCCCGGTAATCCGTATTTGGC (site AGGACTACTGC) | 2.95
AGGACTACATGGACCGGTTTTCCCGGTAATCCGTATTTGGC (site AGGACTACTGG) | 0
AGGACTACATGGACCGGTTTTCCCGGTAATCCGTATTTGGC (site AGGACTACTGT) | 1.61
AGGACTTCATGGACCGGTTTTCCCGGTAATCCGTATTTGAC (site AGGACTACTGT) | 0
AGGACTTCATGGACCGGTTTTCCCGGTAATCCGTATTTGAC (site AGGACTCCTGT) | 0.509
AGGACTTCATGGACCGGTTTTCCCGGTAATCCGTATTTGAC (site AGGACTGCTGT) | 0
AGGACTTCATGGACCGGTTTTCCCGGTAATCCGTATTTGAC (site AGGACTTCTGT) | 2.76
